Values joined by “and” are separate entries in the source; they are usually repeats but may differ in a detail not shown here. Equal entries are not always repeated. Where two headings read alike, the source gives them in different places.

The values below come from article PMC7957917 (ACS Medicinal Chemistry Letters, 2021).

Data set [1] deals with ICR mice. The following applies: ip, cited from earlier work; for tolerated dose: four mice per group.
In the next data set the test system is rats. Briefly: Tolerability after intravenous treatment of rats. As to conditions: 1 mg/kg iv, three rats.
Data set [2] deals with ICR mice. As to the kind of experiment: Acute toxicity study in mice. As to conditions: ip, HCl salts, four mice per group, doses 2.5, 5, 10, 15 mg/kg every 24 h.
In the next data set the test system is WNV (strain New York 99). The following applies: Huh-7 cells, 48 h postinfection.
Another data set relates to DENV-2 (strain 16681). The following applies: Huh-7 cells, 48 h postinfection.
In another data set the test system is SARS-CoV-2. The following applies: infected Calu-3 cells; cited from earlier work.
The nature of data set [3]: Pharmacokinetic characterization in rats. Format: in vivo, Sprague Dawley rats. The following applies: rat, ip, 2.5 mg/kg.
The subject of the next data set is RSV A2 strain. Briefly: Multicycle replication of RSV in A549 cells. In kind it is cell-based, respiratory syncytial virus.

As for `CC(C)(C)[C@H](NC(=O)[C@H](CCCNC(=N)N)NC(=O)Cc1ccc(CNC(=N)N)cc1)C(=O)N[C@@H](CCCCN)C(=O)NCc1ccc(C(=N)N)cc1` [Inhibitor 2], the “number of deaths at next higher dose” value in the data set with ICR mice [1] (at 10 mg/kg) was 4 of 4 at 10 mg/kg. In the data set on ICR mice [1], the tolerated dose is 5 mg/kg.
With `CC(C)(C)[C@H](NC(=O)[C@H](CCCNC(=N)N)NC(=O)Cc1ccc(CNC(=N)N)cc1)C(=O)N[C@@H](CCCNC(=N)N)C(=O)NCc1ccc(C(=N)N)cc1` [Inhibitor 1], the “number of deaths at next higher dose” value in the data set with ICR mice [1] (at 5 mg/kg) was “all mice died and 4 of 4 at 5 mg/kg”. The tolerated dose in the data set with ICR mice [1] was 2.5 mg/kg. Further, the “tolerability after iv treatment” value in the data set on rats is on record as “two of three rats died within 90 min”.
As to `CC(C)(C)[C@H](NC(=O)[C@H](CCONC(=N)N)NC(=O)Cc1ccc(CNC(=N)N)cc1)C(=O)N[C@@H](CCONC(=N)N)C(=O)NCc1ccc(C(=N)N)cc1` [Inhibitor 8], in the data set with ICR mice [2], the tolerated dose was 15 mg/kg. The “antiviral potency against WNV (virus titers)” value in the data set on WNV (strain New York 99) is given as “significant antiviral potency”. In addition, the “antiviral potency against DENV-2 (virus titers)” value in the data set with DENV-2 (strain 16681) was “significant antiviral potency”. Further, the “reduction of SARS-CoV-2 replication” value with SARS-CoV-2 is listed as “significant reduction of the SARS-CoV-2 replication”. The “period with plasma levels >1000 ng/mL (∼1.3 μM)” value in data set [3] is recorded as “approximately 3 h”. In the data set on rats, the “tolerability after iv treatment” value is recorded as “well-accepted in all three rats without any signs of side effects”. Moreover, the “RSV inhibition compared with reference inhibitor 1 (viral titers)” value in the data set on RSV A2 strain (MOI 1, 0.1-10 µM inhibitor, 16-72 h post infection) is reported as “strongest antiviral efficacy”. Moreover, the “inhibition of RSV replication at 10 µM” value in the data set on RSV A2 strain (initial tests, 10 µM) is recorded as “complete inhibition of virus replication”.
On to `CC(C)(C)[C@H](NC(=O)[C@H](CCONC(=N)N)NC(=O)Cc1ccc(CN)cc1)C(=O)N[C@@H](CCCCN)C(=O)NCc1ccc(C(=N)N)cc1` [Inhibitor 5], for which, in the data set with ICR mice [2], the tolerated dose was 15 mg/kg.
